Assay: Effect of phosphate and borate buffers on chemical stability (% remaining, impurity profile), osmolality, pH and appearance of 25HC3S 30 mg/mL in 250 mg/mL HPBCD at 80°C and 60°C
Format: physicochemical
Details: 80° C.
Procedure: A total of six 25HC3S formulations at 30 mg/mL in 250 mg/mL of 2-hydroxypropyl beta cyclodextrin (HPBCD) containing 10, 20, 50 and 100 mM phosphate buffers at pH 7.5 to 8.1 and 10 and 50 mM borate buffers at pH 9.4 were prepared for the stability study. The chemical stability (measured as % remaining of 25HC3S) and physical stability (osmolality, pH and appearance) of the formulations were monitored under accelerated conditions for up to 7 days at 80° C. and up to 29 days at 60° C.
Two stock solutions of phosphate buffer at 100 and 200 mM at pH 7.4 and 7.3, respectively and one borate buffer at 100 mM at pH 9.3 were prepared (Tables 22A and 22B) and used for 250 mg/mL HPBCD vehicles preparation (Table 23).
Approximately 1200 mg each of 25HC3S was weighed into 40 mL volumetric flasks and diluted to volume with the six HPBCD vehicles containing 10-100 mM phosphate buffers or 10 and 50 mM borate buffers, respectively (Table 24). The final concentration of 25HC3S was 30 mg/mL (wt/volume, without adjusting for API purity). Aliquots of 2 mL of each formulation were filled into 2 mL glass vials, stoppered and sealed for stability sample set-up at 60° C. and 80° C. to study the effect of phosphate buffer (pH 7.5-8.1) and borate buffer (pH 9.4) at various buffer concentrations on the stability of the HPBCD formulations (Table 26).
A 0.5 mL of sample solution was transferred to a 25 mL volumetric flask and QS'ed with methanol/water=95/5 for 25HC3S concentration determination by HPLC. The % remaining of 25HC3S was calculated as follows: […]

Compound: C[C@H](CCCC(C)(C)O)[C@H]1CC[C@H]2[C@@H]3CC=C4C[C@@H](OS(=O)(=O)[O-])CC[C@]4(C)[C@H]3CC[C@]12C.[Na+] [25HC3S, 5-cholesten-3, 25-diol, 3-sulfate]
- % Peak Area Major Thermal Degradant at RRT = 2.64 (day 0, Phosphate 10 mM): 0.3 % Peak Area
- % Peak Area 25-Hydroxy Cholesterol at RRT = 3.67 (day 0, Phosphate 20 mM): 0.0 % Peak Area
- % Peak Area 25HC3S (day 0, Phosphate 20 mM): 99.7 % Peak Area
- % Peak Area Major Thermal Degradant at RRT = 2.64 (day 0, Phosphate 20 mM): 0.3 % Peak Area
- % Peak Area 25-Hydroxy Cholesterol at RRT = 3.67 (day 0, Phosphate 50 mM): 0.0 % Peak Area
- % Peak Area 25HC3S (day 0, Phosphate 50 mM): 99.7 % Peak Area
- % Peak Area Major Thermal Degradant at RRT = 2.64 (day 0, Phosphate 50 mM): 0.3 % Peak Area
- % Peak Area 25-Hydroxy Cholesterol at RRT = 3.67 (day 0, Phosphate 100 mM): 0.0 % Peak Area
- % Peak Area 25HC3S (day 0, Phosphate 100 mM): 99.8 % Peak Area
- % Peak Area Major Thermal Degradant at RRT = 2.64 (day 0, Phosphate 100 mM): 0.3 % Peak Area
- % Peak Area 25-Hydroxy Cholesterol at RRT = 3.67 (day 1, Borate 10 mM): 1.0 % Peak Area
- % Peak Area 25HC3S (day 1, Borate 10 mM): 98.8 % Peak Area
- % Peak Area Major Thermal Degradant at RRT = 2.64 (day 1, Borate 10 mM): 0.3 % Peak Area
- % Peak Area 25-Hydroxy Cholesterol at RRT = 3.67 (day 1, Borate 50 mM): 1.0 % Peak Area
- % Peak Area 25HC3S (day 1, Borate 50 mM): 98.7 % Peak Area
- % Peak Area Major Thermal Degradant at RRT = 2.64 (day 1, Borate 50 mM): 0.3 % Peak Area
- % Peak Area 25-Hydroxy Cholesterol at RRT = 3.67 (day 1, Phosphate 10 mM): 0.9 % Peak Area
- % Peak Area 25HC3S (day 1, Phosphate 10 mM): 98.9 % Peak Area
- % Peak Area Major Thermal Degradant at RRT = 2.64 (day 1, Phosphate 10 mM): 0.3 % Peak Area
- % Peak Area 25-Hydroxy Cholesterol at RRT = 3.67 (day 1, Phosphate 20 mM): 1.0 % Peak Area
- % Peak Area 25HC3S (day 1, Phosphate 20 mM): 98.8 % Peak Area
- % Peak Area Major Thermal Degradant at RRT = 2.64 (day 1, Phosphate 20 mM): 0.3 % Peak Area
- % Peak Area 25-Hydroxy Cholesterol at RRT = 3.67 (day 1, Phosphate 50 mM): 1.0 % Peak Area
- % Peak Area 25HC3S (day 1, Phosphate 50 mM): 98.9 % Peak Area
- % Peak Area Major Thermal Degradant at RRT = 2.64 (day 1, Phosphate 50 mM): 0.2 % Peak Area
- % Peak Area 25-Hydroxy Cholesterol at RRT = 3.67 (day 1, Phosphate 100 mM): 0.9 % Peak Area
- % Peak Area 25HC3S (day 1, Phosphate 100 mM): 98.8 % Peak Area
- % Peak Area Major Thermal Degradant at RRT = 2.64 (day 1, Phosphate 100 mM): 0.3 % Peak Area
- % Peak Area 25-Hydroxy Cholesterol at RRT = 3.67 (day 2, Borate 10 mM): 1.9 % Peak Area
- % Peak Area 25HC3S (day 2, Borate 10 mM): 97.9 % Peak Area
- % Peak Area Major Thermal Degradant at RRT = 2.64 (day 2, Borate 10 mM): 0.3 % Peak Area
- % Peak Area 25-Hydroxy Cholesterol at RRT = 3.67 (day 2, Borate 50 mM): 2.0 % Peak Area
- % Peak Area 25HC3S (day 2, Borate 50 mM): 97.8 % Peak Area
- % Peak Area Major Thermal Degradant at RRT = 2.64 (day 2, Borate 50 mM): 0.3 % Peak Area
- % Peak Area 25-Hydroxy Cholesterol at RRT = 3.67 (day 2, Phosphate 10 mM): 1.9 % Peak Area
- % Peak Area 25HC3S (day 2, Phosphate 10 mM): 97.9 % Peak Area
- % Peak Area Major Thermal Degradant at RRT = 2.64 (day 2, Phosphate 10 mM): 0.3 % Peak Area
- % Peak Area 25-Hydroxy Cholesterol at RRT = 3.67 (day 2, Phosphate 20 mM): 1.9 % Peak Area
- % Peak Area 25HC3S (day 2, Phosphate 20 mM): 98.0 % Peak Area
- % Peak Area Major Thermal Degradant at RRT = 2.64 (day 2, Phosphate 20 mM): 0.2 % Peak Area
- % Peak Area 25-Hydroxy Cholesterol at RRT = 3.67 (day 2, Phosphate 50 mM): 2.0 % Peak Area
- % Peak Area 25HC3S (day 2, Phosphate 50 mM): 97.8 % Peak Area
- % Peak Area Major Thermal Degradant at RRT = 2.64 (day 2, Phosphate 50 mM): 0.3 % Peak Area
- % Peak Area 25-Hydroxy Cholesterol at RRT = 3.67 (day 2, Phosphate 100 mM): 2.0 % Peak Area
- % Peak Area 25HC3S (day 2, Phosphate 100 mM): 97.8 % Peak Area
- % Peak Area Major Thermal Degradant at RRT = 2.64 (day 2, Phosphate 100 mM): 0.3 % Peak Area
- % Peak Area 25-Hydroxy Cholesterol at RRT = 3.67 (day 3, Borate 10 mM): 2.8 % Peak Area
- % Peak Area 25HC3S (day 3, Borate 10 mM): 97.0 % Peak Area
- % Peak Area Major Thermal Degradant at RRT = 2.64 (day 3, Borate 10 mM): 0.3 % Peak Area
- % Peak Area 25-Hydroxy Cholesterol at RRT = 3.67 (day 3, Borate 50 mM): 3.0 % Peak Area
- % Peak Area 25HC3S (day 3, Borate 50 mM): 96.9 % Peak Area
- % Peak Area Major Thermal Degradant at RRT = 2.64 (day 3, Borate 50 mM): 0.2 % Peak Area
- % Peak Area 25-Hydroxy Cholesterol at RRT = 3.67 (day 3, Phosphate 10 mM): 4.3 % Peak Area
- % Peak Area 25HC3S (day 3, Phosphate 10 mM): 95.6 % Peak Area
- % Peak Area Major Thermal Degradant at RRT = 2.64 (day 3, Phosphate 10 mM): 0.2 % Peak Area
- % Peak Area 25-Hydroxy Cholesterol at RRT = 3.67 (day 3, Phosphate 20 mM): 3.5 % Peak Area
- % Peak Area 25HC3S (day 3, Phosphate 20 mM): 96.4 % Peak Area
- % Peak Area Major Thermal Degradant at RRT = 2.64 (day 3, Phosphate 20 mM): 0.2 % Peak Area
- % Peak Area 25-Hydroxy Cholesterol at RRT = 3.67 (day 3, Phosphate 50 mM): 3.3 % Peak Area
- % Peak Area 25HC3S (day 3, Phosphate 50 mM): 96.5 % Peak Area
- % Peak Area Major Thermal Degradant at RRT = 2.64 (day 3, Phosphate 50 mM): 0.3 % Peak Area
- % Peak Area 25-Hydroxy Cholesterol at RRT = 3.67 (day 3, Phosphate 100 mM): 3.2 % Peak Area
- % Peak Area 25HC3S (day 3, Phosphate 100 mM): 96.6 % Peak Area
- % Peak Area Major Thermal Degradant at RRT = 2.64 (day 3, Phosphate 100 mM): 0.3 % Peak Area
- % Peak Area 25-Hydroxy Cholesterol at RRT = 3.67 (day 7, Borate 10 mM): 7.3 % Peak Area
- % Peak Area 25HC3S (day 7, Borate 10 mM): 92.5 % Peak Area
- % Peak Area Major Thermal Degradant at RRT = 2.64 (day 7, Borate 10 mM): 0.2 % Peak Area
- % Peak Area 25-Hydroxy Cholesterol at RRT = 3.67 (day 7, Borate 50 mM): 6.2 % Peak Area
- % Peak Area 25HC3S (day 7, Borate 50 mM): 93.6 % Peak Area
- % Peak Area Major Thermal Degradant at RRT = 2.64 (day 7, Borate 50 mM): 0.3 % Peak Area
- % Peak Area 25-Hydroxy Cholesterol at RRT = 3.67 (day 7, Phosphate 10 mM): 27.1 % Peak Area
- % Peak Area 25HC3S (day 7, Phosphate 10 mM): 72.3 % Peak Area
- % Peak Area Major Thermal Degradant at RRT = 2.64 (day 7, Phosphate 10 mM): 0.7 % Peak Area
- % Peak Area 25-Hydroxy Cholesterol at RRT = 3.67 (day 7, Phosphate 20 mM): 19.8 % Peak Area
- % Peak Area 25HC3S (day 7, Phosphate 20 mM): 79.9 % Peak Area
- % Peak Area Major Thermal Degradant at RRT = 2.64 (day 7, Phosphate 20 mM): 0.2 % Peak Area
- % Peak Area 25-Hydroxy Cholesterol at RRT = 3.67 (day 7, Phosphate 50 mM): 11.6 % Peak Area
- % Peak Area 25HC3S (day 7, Phosphate 50 mM): 88.2 % Peak Area
- % Peak Area Major Thermal Degradant at RRT = 2.64 (day 7, Phosphate 50 mM): 0.2 % Peak Area
- % Peak Area 25-Hydroxy Cholesterol at RRT = 3.67 (day 7, Phosphate 100 mM): 9.8 % Peak Area
- % Peak Area 25HC3S (day 7, Phosphate 100 mM): 90.0 % Peak Area
- % Peak Area Major Thermal Degradant at RRT = 2.64 (day 7, Phosphate 100 mM): 0.2 % Peak Area
